Laboratory results: PubChem BioAssay (NCI)
Values joined by “and” are separate entries in the source; they are usually repeats but may differ in a detail not shown here. Equal values may be shown once.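 Following 48 hours of exposure in 96-well plates, responses at five concentrations were used to interpolate endpoints linearly. The concentration for 50% growth inhibition is given as GI50. TGI is the concentration that stops growth completely.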

Tests used:
Experiment in all cases: growth of human tumour cells (NCI), 48 h
[1] = system: MDA-N
[2] = system: HL-60(TB) leukemia
[3] = system: SK-MEL-2 melanoma
[4] = system: BT-549 breast
[5] = system: SK-MEL-28 melanoma
[6] = system: OVCAR-8 ovarian
[7] = system: TK-10 renal
[8] = system: HOP-92 NSCLC
[9] = system: RXF 393 renal
[10] = system: T-47D breast
[11] = system: SK-MEL-5 melanoma
[12] = system: SNB-19 CNS
[13] = system: CCRF-CEM leukemia
[14] = system: NCI-H23 lung
[15] = system: HS 578T breast
[16] = system: KM12 colon
[17] = system: SF-539 CNS
[18] = system: PC-3 prostate
[19] = system: HT29 colon
[20] = system: MALME-3M melanoma
[21] = system: HCC-2998 colon
[22] = system: HCT-116 colon
[23] = system: NCI-H226 lung
[24] = system: MCF7 breast
[25] = system: NCI-H460 lung
[26] = system: UACC-62 melanoma
[27] = system: RPMI-8226 leukemia
[28] = system: SN12C renal
[29] = system: A498 renal
[30] = system: K-562 leukemia
[31] = system: HOP-62 NSCLC
[32] = system: M14 melanoma
[33] = system: MOLT-4 leukemia
[34] = system: SF-268 CNS
[35] = system: NCI-H522 lung
[36] = system: OVCAR-4 ovarian
[37] = system: DU-145 prostate
[38] = system: U251 CNS
[39] = system: SR leukemia
[40] = system: SNB-75 CNS
[41] = system: OVCAR-3 ovarian
[42] = system: CAKI-1 renal
[43] = system: UO-31 renal
[44] = system: UACC-257 melanoma
[45] = system: EKVX NSCLC
[46] = system: LOX IMVI melanoma
[47] = system: 786-0 renal
[48] = system: OVCAR-5 ovarian
[49] = system: HCT-15 colon
[50] = system: SF-295 CNS
[51] = system: ACHN renal
[52] = system: MDA-MB-231 breast
[53] = system: IGROV1 ovarian
[54] = system: SW-620 colon
[55] = system: A549 NSCLC
[56] = system: COLO 205 colon
[57] = system: SK-OV-3 ovarian
[58] = system: NCI/ADR-RES ovarian
[59] = system: MDA-MB-435

N#Cc1c(-c2ccccc2)c(C#N)c(=S)n(C2OC(CO)C(O)C(O)C2O)c1N (stereo unspecified)
TGI [1]: > 100 µM | TGI [2]: > 100 µM | TGI [3]: > 100 µM | TGI [4]: > 100 µM | TGI [5]: > 100 µM | TGI [6]: > 100 µM | GI50 [7]: 40.5 µM and > 100 µM | TGI [7]: > 100 µM | GI50 [8]: 42 µM and 21 µM | TGI [8]: > 100 µM | TGI [9]: > 100 µM | TGI [10]: > 100 µM | TGI [11]: > 100 µM | TGI [12]: > 100 µM | TGI [13]: > 100 µM | TGI [14]: > 100 µM | TGI [15]: > 100 µM | TGI [16]: > 100 µM | TGI [17]: > 100 µM | TGI [18]: > 100 µM | TGI [19]: > 100 µM | TGI [20]: > 100 µM | TGI [21]: > 100 µM | TGI [22]: > 100 µM | TGI [23]: > 100 µM | GI50 [24]: 91.1 µM and 41.6 µM | TGI [24]: > 100 µM | TGI [25]: > 100 µM | TGI [26]: > 100 µM | TGI [27]: > 100 µM | TGI [28]: > 100 µM | TGI [29]: > 100 µM | TGI [30]: > 100 µM | GI50 [31]: > 100 µM and 36 µM | TGI [31]: > 100 µM | TGI [32]: > 100 µM | GI50 [33]: 39.3 µM and > 100 µM | TGI [33]: > 100 µM | TGI [34]: > 100 µM | TGI [35]: > 100 µM | TGI [36]: > 100 µM | TGI [37]: > 100 µM | TGI [38]: > 100 µM | TGI [39]: > 100 µM | TGI [40]: > 100 µM | TGI [41]: > 100 µM | TGI [42]: > 100 µM | GI50 [43]: > 100 µM and 40.3 µM | TGI [43]: > 100 µM | TGI [44]: > 100 µM | GI50 [45]: 44.4 µM and > 100 µM | TGI [45]: > 100 µM | TGI [46]: > 100 µM | TGI [47]: > 100 µM | TGI [48]: > 100 µM | TGI [49]: > 100 µM | TGI [50]: > 100 µM | TGI [51]: > 100 µM | TGI [52]: > 100 µM | GI50 [53]: > 100 µM and 45.5 µM | TGI [53]: > 100 µM | TGI [54]: > 100 µM | TGI [55]: > 100 µM

CCOP(=O)(OCC)/C(C#N)=C/c1cnc(C)[nH]1
TGI [1]: > 100 µM | TGI [2]: > 100 µM | TGI [56]: > 100 µM | TGI [57]: > 100 µM | TGI [3]: > 100 µM | TGI [4]: > 100 µM | TGI [5]: > 100 µM | TGI [6]: > 100 µM | TGI [7]: > 100 µM | TGI [8]: > 100 µM | TGI [9]: > 100 µM | TGI [11]: > 100 µM | TGI [12]: > 100 µM | TGI [13]: > 100 µM | TGI [14]: > 100 µM | TGI [15]: > 100 µM | TGI [16]: > 100 µM | TGI [17]: > 100 µM | TGI [18]: > 100 µM | TGI [58]: > 100 µM | TGI [19]: > 100 µM | TGI [20]: > 100 µM | TGI [21]: > 100 µM | TGI [22]: > 100 µM | TGI [23]: > 100 µM | TGI [24]: > 100 µM | TGI [25]: > 100 µM | TGI [26]: > 100 µM | TGI [27]: > 100 µM | TGI [28]: > 100 µM | TGI [29]: > 100 µM | TGI [30]: > 100 µM | TGI [59]: > 100 µM | TGI [31]: > 100 µM | TGI [32]: > 100 µM | TGI [33]: > 100 µM | TGI [34]: > 100 µM | TGI [35]: > 100 µM | TGI [36]: > 100 µM | TGI [37]: > 100 µM | TGI [38]: > 100 µM | TGI [39]: > 100 µM | TGI [40]: > 100 µM | TGI [41]: > 100 µM | TGI [42]: > 100 µM | TGI [43]: > 100 µM | TGI [44]: > 100 µM | TGI [45]: > 100 µM | TGI [46]: > 100 µM | TGI [47]: > 100 µM | TGI [48]: > 100 µM | TGI [49]: > 100 µM | TGI [50]: > 100 µM | TGI [51]: > 100 µM | TGI [52]: > 100 µM | TGI [53]: > 100 µM | TGI [54]: > 100 µM | TGI [55]: > 100 µM
